Source: ChEMBL document CHEMBL1126805, “Synthesis and evaluation of a series of benzylaniline hydrochlorides as potential cytotoxic and antimitotic agents acting by inhibition of tubulin polymerization” (J Med Chem, 1993)

Key:
Format in all cases: functional
SNB-78 = test: Tested for cytotoxicity against SNB-78 cell lines in CNS cancer; details: Homo sapiens
NCI-H522 [1] = test: (§1) Tested for cytotoxicity against NCI-H522 cell lines in non-small-cell lung cancer; details: Homo sapiens
M14 [2] = test: (§2) Tested for cytotoxicity against M14 cell lines in melanoma; details: Homo sapiens
NCI-H23 = test: Tested for cytotoxicity against NCI-H23 cell lines in non-small-cell lung cancer; details: Homo sapiens
DMS-273 [3] = test: Tested for cytotoxicity against DMS273 cell lines in small-cell lung cancer; details: Homo sapiens
HOP-92 = test: Tested for cytotoxicity against HOP-92 cell lines in non-small-cell lung cancer; details: Homo sapiens
NCI-H460 = test: Tested for cytotoxicity against NCI-H460 cell lines in non-small-cell lung cancer; details: Homo sapiens
OVCAR-3 = test: Tested for cytotoxicity against OVCAR-3 cell lines in ovarian cancer; details: Homo sapiens
LOX IMVI = test: Tested for cytotoxicity against LOX IMVI cell lines in melanoma; details: Homo sapiens
OVCAR-4 = test: Tested for cytotoxicity against OVCAR-4 cell lines in ovarian cancer; details: Homo sapiens
SNB-75 = test: Tested for cytotoxicity against SNB-75 cell lines in CNS cancer; details: Homo sapiens
SF-268 = test: Tested for cytotoxicity against SF-268 cell lines in CNS cancer; details: Homo sapiens
OVCAR-8 = test: Tested for cytotoxicity against OVCAR-8 cell lines in ovarian cancer; details: Homo sapiens
UO-31 = test: Tested for cytotoxicity against UO-31 cell lines in renal cancer; details: Homo sapiens
RPMI-8226 = test: Tested for cytotoxicity against RPMI-8226 cell lines in leukemia; details: Homo sapiens
CAKI-1 [4] = test: (§3) Tested for cytotoxicity against CAKI-1 cell lines in renal cancer; details: Homo sapiens
SNB-19 = test: Tested for cytotoxicity against SNB-19 cell lines in CNS cancer; details: Homo sapiens
HT-29 = test: Tested for cytotoxicity against HT-29 cell lines in colon cancer; details: Homo sapiens
SW-620 = test: Tested for cytotoxicity against SW-620 cell lines in colon cancer; details: Homo sapiens
DMS-273 [5] = test: Tested for cytotoxicity against DMS 273 cell lines in small-cell lung cancer; details: Homo sapiens
786-0 = test: Tested for cytotoxicity against 786-0 cell lines in renal cancer; details: Homo sapiens
COLO 205 [6] = test: (§4) Tested for cytotoxicity against COLO 205 cell lines in colon cancer; details: Homo sapiens
HCT-116 = test: Tested for cytotoxicity against HCT116 cell lines in colon cancer; details: Homo sapiens
SN12C = test: Tested for cytotoxicity against SN12C cell lines in renal cancer; details: Homo sapiens
Tubulin = Tubulin (Bos taurus, UniProt Q6B856+Q862F3); test: In vitro inhibition of bovine electrophoretically homogeneous tubulin polymerization.
SF-295 [7] = test: (§5) Tested for cytotoxicity against SF-295 cell lines in CNS cancer; details: Homo sapiens
SK-MEL-2 = test: Tested for cytotoxicity against SK-MEL-2 cell lines in melanoma; details: Homo sapiens
IGROV-1 = test: Tested for cytotoxicity against IGROV1 cell lines in ovarian cancer; details: Homo sapiens
XF498 = test: Tested for cytotoxicity against XF 498 cell lines in CNS cancer; details: Homo sapiens
MOLT-4 = test: Tested for cytotoxicity against MOLT-4 cell lines in leukemia; details: Homo sapiens
CCRF-CEM = test: Tested for cytotoxicity against CCRF-CEM cell lines in leukemia; details: Homo sapiens
CAKI-1 [8] = test: as §3; details: Homo sapiens; remark: listed apart in the source
SF-539 = test: Tested for cytotoxicity against SF-539 cell lines in CNS cancer; details: Homo sapiens
DLD-1 = test: Tested for cytotoxicity against DLD-1 cell lines in colon cancer; details: Homo sapiens
HL-60 [9] = test: Tested for cytotoxicity against human cancer cell lines HL-60(TB) (leukemia) cell line.
HOP-18 = test: Tested for cytotoxicity against HOP-18 cell lines in non-small-cell lung cancer; details: Homo sapiens
HCT-15 = test: Tested for cytotoxicity against HCT-15 cell lines in colon cancer; details: Homo sapiens
M14 [10] = test: as §2; details: Homo sapiens; remark: listed apart in the source
M19-MEL = test: Tested for cytotoxicity against M19-MEL cell lines in melanoma; details: Homo sapiens
HL-60 [11] = test: Tested for cytotoxicity against HL-60 (TB) cell lines in leukemia; details: Homo sapiens
UACC-257 = test: Tested for cytotoxicity against UACC-257 cell lines in melanoma; details: Homo sapiens
COLO 205 [12] = test: as §4; details: Homo sapiens; remark: listed apart in the source
SF-295 [13] = test: as §5; details: Homo sapiens; remark: listed apart in the source
RXF 393 = test: Tested for cytotoxicity against RXF-393 cell lines in renal cancer; details: Homo sapiens
A549 = test: Tested for cytotoxicity against A549/ATCC cell lines in non-small-cell lung cancer; details: Homo sapiens
U-251 = test: Tested for cytotoxicity against U251 cell lines in CNS cancer; details: Homo sapiens
LXFL 529 = test: Tested for cytotoxicity against LXFL529 cell lines in non-small-cell lung cancer; details: Homo sapiens
NCI-H322M = test: Tested for cytotoxicity against NCI-H322M cell lines in non-small-cell lung cancer; details: Homo sapiens
EKVX = test: Tested for cytotoxicity against […] cell lines in non-small-cell lung cancer; details: Homo sapiens
ACHN = test: Tested for cytotoxicity against ACHN cell lines in renal cancer; details: Homo sapiens
Malme-3M = test: Tested for cytotoxicity against MALME-3M cell lines in melanoma; details: Homo sapiens
DMS-114 = test: Tested for cytotoxicity against DMS114 cell lines in small-cell lung cancer; details: Homo sapiens
KM-20L2 = test: Tested for cytotoxicity against KM20L2 cell lines in colon cancer; details: Homo sapiens
OVCAR-5 = test: Tested for cytotoxicity against OVCAR-5 cell lines in ovarian cancer; details: Homo sapiens
A498 = test: Tested for cytotoxicity against A498 cell lines in renal cancer; details: Homo sapiens
TK-10 = test: Tested for cytotoxicity against TK-10 cell lines in renal cancer; details: Homo sapiens
K562 = test: Tested for cytotoxicity against K-562 cell lines in leukemia; details: Homo sapiens
HOP-62 = test: Tested for cytotoxicity against HOP-62 cell lines in non-small-cell lung cancer; details: Homo sapiens
SK-OV-3 = test: Tested for cytotoxicity against SK-OV-3 cell lines in ovarian cancer; details: Homo sapiens
UACC-62 = test: Tested for cytotoxicity against UACC-62 cell lines in melanoma; details: Homo sapiens
NCI-H522 [14] = test: as §1; details: Homo sapiens; remark: listed apart in the source
SK-MEL-5 = test: Tested for cytotoxicity against SK-MEL-5 cell lines in melanoma; details: Homo sapiens
KM12 = test: Tested for cytotoxicity against KM12 cell lines in colon cancer; details: Homo sapiens

Chain of Tubulin (Q6B856 whole entry): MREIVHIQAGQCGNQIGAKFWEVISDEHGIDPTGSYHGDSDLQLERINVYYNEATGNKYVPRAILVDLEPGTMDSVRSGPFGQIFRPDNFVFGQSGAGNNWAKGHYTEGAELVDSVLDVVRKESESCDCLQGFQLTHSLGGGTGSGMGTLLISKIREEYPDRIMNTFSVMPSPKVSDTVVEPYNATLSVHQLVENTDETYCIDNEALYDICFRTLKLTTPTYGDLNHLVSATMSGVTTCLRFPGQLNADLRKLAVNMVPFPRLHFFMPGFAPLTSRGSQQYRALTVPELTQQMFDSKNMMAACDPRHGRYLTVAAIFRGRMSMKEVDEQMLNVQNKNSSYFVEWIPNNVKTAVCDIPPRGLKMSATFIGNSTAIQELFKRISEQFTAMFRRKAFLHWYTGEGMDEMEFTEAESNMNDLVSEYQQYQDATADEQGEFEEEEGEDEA
Chain of Tubulin (Q862F3 whole entry): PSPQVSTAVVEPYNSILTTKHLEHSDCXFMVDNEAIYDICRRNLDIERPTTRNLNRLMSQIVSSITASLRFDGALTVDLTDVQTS

COc1cc(CNc2ccc(C)cc2)cc(OC)c1OC was tested, and the GI50 (SNB-78) was 1100 nM, the GI50 (NCI-H522 [1]) was 204 nM and the GI50 (M14 [2]) was under 10 nM. The GI50 (NCI-H23) was 407 nM, the GI50 (DMS-273 [3]) was 93.3 nM and the GI50 (HOP-92) was 18600 nM. For the same compound, the GI50 (NCI-H460) was 214 nM, the GI50 (OVCAR-3) was 214 nM and the GI50 (LOX IMVI) was 851 nM. It also gave a GI50 (OVCAR-4) of 21400 nM, a GI50 (SNB-75) of 389 nM and a GI50 (SF-268) of 912 nM. For the same compound, the GI50 (OVCAR-8) was 759 nM, the GI50 (UO-31) was 832 nM and the GI50 (RPMI-8226) was 437 nM. The GI50 (CAKI-1 [4]) was 162 nM, the GI50 (SNB-19) was 295 nM and the GI50 (HT-29) was 347 nM. For the same compound, the GI50 (SW-620) was 110 nM, the GI50 (DMS-273 [5]) was 104 nM and the GI50 (786-0) was 324 nM. For the same compound, the GI50 (COLO 205 [6]) was 219 nM, the GI50 (HCT-116) was 575 nM and the GI50 (SN12C) was 851 nM. The IC50 (Tubulin) was 3500 nM, the GI50 (SF-295 [7]) was 233 nM and the GI50 (SK-MEL-2) was 132 nM. The GI50 (IGROV-1) was 708 nM, the GI50 (XF498) was 468 nM and the GI50 (MOLT-4) was 427 nM. The GI50 (CCRF-CEM) was 282 nM, the GI50 (CAKI-1 [8]) was 13.2 nM and the GI50 (SF-539) was 316 nM. It also gave a GI50 (DLD-1) of 575 nM, a GI50 (HL-60 [9]) of 722 nM and a GI50 (HOP-18) of 37200 nM. For the same compound, the GI50 (HCT-15) was 245 nM, the GI50 (M14 [10]) was 292 nM and the GI50 (M19-MEL) was 331 nM. It also gave a GI50 (HL-60 [11]) of 89.1 nM, a GI50 (UACC-257) of over 100000 nM and a GI50 (COLO 205 [12]) of 214 nM. For the same compound, the GI50 (SF-295 [13]) was 324 nM, the GI50 (RXF 393) was 112 nM and the GI50 (A549) was 513 nM. For the same compound, the GI50 (U-251) was 331 nM, the GI50 (LXFL 529) was 631 nM and the GI50 (NCI-H322M) was 501 nM. It also gave a GI50 (EKVX) of 741 nM, a GI50 (ACHN) of 97.7 nM and a GI50 (Malme-3M) of 468 nM. For the same compound, the GI50 (DMS-114) was 427 nM, the GI50 (KM-20L2) was 251 nM and the GI50 (OVCAR-5) was 1350 nM. For the same compound, the GI50 (A498) was over 100000 nM, the GI50 (TK-10) was over 100000 nM and the GI50 (K562) was 100 nM. For the same compound, the GI50 (HOP-62) was 282 nM, the GI50 (SK-OV-3) was 269 nM and the GI50 (UACC-62) was 575 nM. It also gave a GI50 (NCI-H522 [14]) of 262 nM, a GI50 (SK-MEL-5) of 912 nM and a GI50 (KM12) of 759 nM.
